The values below come from US20060093577A1, “Combination anti-viral compositions and methods of use” (priority 2004, published 2006).

The term EC50 denotes the concentration that produces a half-maximal response. The term EC90 denotes the concentration at which the effect reaches the 90% level.

In series [1] the test system is BVDV. In words: Two-way combination inhibition-of-CPE assay, BVDV-infected MDBK cells, MOI 0.05 (Example 5). In kind it is cell-based, bovine viral diarrhea virus. As to conditions: read-out: EC50 protection of MDBK cells from BVDV-induced cytotoxicity. As for the experimental part: (§1) Each two-way combination was performed twice.
Individual potencies (EC50) of each of the drugs for inhibition of BVDV-induced cytopathic effects in MDBK cells were determined for each combination experiment (see Table 9).

In series [2] the test system is BVDV. The experiment in a line: Protection of MDBK cells from BVDV-induced cytotoxicity (MTS/PMS CPE reduction). In kind it is cell-based. Particulars: Bovine viral diarrhea virus isolates and strains.
Procedure: Cell proliferation assays were performed using a non-radioactive cell proliferation MTS/PMS assay (MTS: 3-(4,5-dimethylthiazol-2-yl)-5-(3-carboxymethoxy phenyl)-2-(4-sulfophenyl)-2H-tetrazolium (Promega Corporation, Madison, Wis.); PMS: phenazine methosulfate (Sigma Aldrich, St. Louis, Mo.)). MDBK cells were seeded into 96-well plates at a density of approximately 2×10^4 cells per well. The cultures were incubated 3-24 hours to permit attachment of the cells to the plates prior to infection and addition of compounds. The appropriate number of PFU of BVDV were added to each well to achieve the desired MOI (0.1 or 0.01); the cells were exposed to the virus diluted at the appropriate concentration in phosphate buffered saline (PBS) containing 1% horse serum for 1 to 2 hours. The virus inoculum was then removed and the cells were washed with PBS containing 1% HS. The test compounds, castanospermine, ribavirin, and interferon-α were dissolved in cell growth media with 2% HS and added to the cells at varying concentrations, and then incubated at 37° C. in the presence of 5% CO2 for 3-4 days. Uninfected cells and infected, untreated cells (i.e., without compound) were used as additional controls. After the 3-4 days of incubation, a combined MTS/PMS solution was added into each well assay plate containing 100 μL of cells in culture medium to obtain final concentrations of 333 μg/ml MTS and 25 μM PMS. A spectrophotometer plate reader was used to measure the absorbance at 490 nm after incubation of the 96-well plate for 1 to 4 hours at 37° C. in a humidified, 5% CO2 atmosphere. The mean absorbance in each set of triplicate wells was determined. Antiviral activity was measured as MTS conversion relative to the differential between the conversion for cell (non-infected) and viral (non-drug-treated) controls. The cytopathic effect (CPE) reduction for each concentration of the tested compound, which correlated with antiviral activity, was calculated as follows. % CPE reduction=[(D−ND)/(NI−ND)]×100, in which D (drug-treated) is the absorbance of drug-treated cells; ND (non drug-treated) is the absorbance of untreated infected cells; and NI (non-infected) is the absorbance of non-infected cells.
The EC50 represents the concentration of the drug that protects 50% of the cells from BVDV induced cytotoxicity (i.e., 50% CPE reduction). CC50 equals the concentration that affects the viability of 50% of the MDBK cells.
The nature of the next series: in vitro. As to conditions: bovine. On the procedure:
MDBK cells were seeded into 96-well plates at a density of approximately 2×10^4 cells per well. The cultures were incubated 3-24 hours to permit attachment of the cells to the plates prior to infection and addition of compounds. […] The mean absorbance in each set of triplicate wells was determined. Antiviral activity was measured as MTS conversion relative to the differential between the conversion for cell (non-infected) and viral (non-drug-treated) controls.

For the next series, the system named is BVDV strain NADL. The experiment in a line: Inhibition of BVDV release from MDBK cells. In kind it is cell-based. Particulars: Bovine viral diarrhea virus isolates and strains, MOI about 0.01, 24 hours. On the procedure: The cell cultures were incubated 3-24 hours to allow attachment of the cells to the tissue culture plates prior to infection and addition of compounds. The appropriate number of plaque forming units (PFU) of BVDV strain NADL (ATCC VR-534) diluted in sterile PBS containing 1% HS were added to each well to achieve the desired multiplicity of infection (MOI) (about 0.01). The cells were exposed to the virus at 37° C., 5% CO2 for 1.5 hours, and then washed with PBS. The test compounds, dissolved in cell growth media with 2% HS, were then added to the cells at varying concentrations. The plates were incubated at 37° C., 5% CO2 for 24 hours (one cycle of BVDV replication). The 96-well plates were then centrifuged at low speed to pellet the cells. The supernatant was serially diluted and used to infect a new monolayer of cells in 12-well plates. The cell monolayer was then overlaid with 0.5% agarose dissolved in cell growth media with 5% HS containing (1) castanospermine (Phytex, Australia); (2) ribavirin (Ribavirin, Sigma); (3) IFN-α2b (PBL Biomedical Laboratories, Piscataway, N.J.); or (4) alone (i.e., no added test compound). The treated cells were incubated for 3 to 5 days at 37° C. under 5% CO2, fixed with formaldehyde, stained with crystal violet or methylene blue, washed in double distilled water, and finally air dried at room temperature. Virus plaques formed were quantified by manual counting, and titer was determined.

The subject of series [3] is BVDV. In words: Plaque reduction assay. In kind it is cell-based. Particulars: Bovine viral diarrhea virus isolates and strains. As for the experimental part: The BVDV virus stock was serially diluted in phosphate buffered saline (PBS) containing 1-5% horse serum (HS). MDBK cells were grown to confluence in culture dishes and were infected at 37° C. with BVDV at various multiplicity of infection (<1 to >0.001). After 1.5 hours of adsorption, the inoculum was removed. The cell monolayer was overlaid with 0.5% agarose dissolved in cell growth media containing 5% HS with and without test compound(s) (castanospermine, ribavirin, or IFN-α). The dishes were incubated for 3 to 5 days at 37° C. under 5% CO2. The monolayer of MDBK cells was fixed with formaldehyde, stained with crystal violet or methylene blue according to standard methods, and then washed in double distilled water. Following washing, the plates air dried at room temperature. The virus plaques formed in the MDBK cell cultures were quantified by manual counting. The inhibitory activities of test compounds were determined by calculating the percent (%) reduction in plaques as follows: % reduction in plaques=[…].
A general note: Plaque reduction counts the foci of infection that form in a cell layer.

Series [4] in a line: CC50 in plaque reduction assay table (Example 3). As to conditions: bovine. In kind it is cell-based.
For series [5], the system named is BVDV. In words: Two-way combination inhibition-of-CPE assay, BVDV-infected MDBK cells, MOI 0.01 (MacSynergy, isobologram). In kind it is cell-based, bovine viral diarrhea virus. Particulars: for EC50: Bovine viral diarrhea virus isolates and strains, MDBK. On the procedure: as §1
Initially, as was done in Example 1, individual compound potency (EC50) for inhibition of BVDV-induced cytopathic effects in MDBK cells was determined for each combination experiment (see Table 5). Minimal experiment-to-experiment variability in individual drug potency was observed.
A greater positive percent (synergy) volume is indicative of a synergistic effect. Values less than 25 μM/ml^2% or 25 μM(IU)/ml(well)^2% are insignificant; values between 25 and 50 μM/ml^2% or 25 and 50 μM(IU)/ml(well)^2% are considered minor but significant; values between 50 and 100 μM/ml^2% or μM(IU)/ml(well)^2% indicate moderate synergy that may be indicative of a significant synergistic effect in vivo; and values greater than 100 μM/ml^2% or μM(IU)/ml(well)^2% indicate strong synergy that is likely indicative of a significant synergistic effect in vivo.

The mark [6] stands for this setting: Bovine viral diarrhea virus isolates and strains, MDBK.
The mark [7] stands for this setting: read-out: EC50 (50% CPE reduction), MOI = 0.01.
[8] abbreviates: read-out: EC50 (50% CPE reduction), MOI = 0.1.
Setting [9] is: MOI 0.01, combination experiments, compound alone, read-out: EC50 protection from BVDV-induced cytotoxicity, individual compound.

On to `NC12CC3CC(CC(C3)C1)C2` [Amantadine, amantadine], for which the concentration giving a half-maximal response (EC50) with BVDV [1] (setting [6]) was 400 µM.
Turning to `O[C@H]1[C@H](O)[C@@H](O)CN2CC[C@H](O)[C@H]12` [Castanospermine, [1S-(1α,6β,7α,8β,8αβ)]-octahydro-1,6,7,8-indoli-zinetetrol], the EC50 in the series with BVDV [2] (setting [7]) turned out to be 61.5 ± 15.4 µM; in the series on BVDV [2] (setting [8]), 177 ± 14.5 µM; with BVDV strain NADL, 14 ± 8 µM; in the series on BVDV [3], 110 ± 82 µM; with BVDV [5] (Interferon-α2b added 0 IU/mL, read-out: Average Castanospermine EC50), 52 µM; with BVDV [5] (Interferon-α2b added 0.7 IU/mL, read-out: Average Castanospermine EC50), 39 µM. Also, the 50% effective concentration (EC50) in the series with BVDV [5] (Interferon-α2b added 2.2 IU/mL, read-out: Average Castanospermine EC50) is 19 µM; with BVDV [5] (Interferon-α2b added 6.7 IU/mL, read-out: Average Castanospermine EC50), 12 µM; with BVDV [5] (Interferon-α2b added 20 IU/mL, read-out: Average Castanospermine EC50) it was 1 µM; with BVDV [5] (Interferon-α2b added 60 IU/mL, read-out: Average Castanospermine EC50) it was below 1 µM; in the series on BVDV [5] (setting [9]), 59 ± 16 µM; with BVDV [1] (setting [6]) it was above 100 µM. The CC50 (in the series “in vitro”; in series [4]) was above 1000 µM in each case. It took 83 ± 21 µM to reach the 90% level in the series with BVDV strain NADL (EC90). Also, the “dose-dependent reduction in EC50 of castanospermine” value in the series with BVDV [5] (addition of increasing concentrations of interferon-α2b) is above 52 fold. For the same compound, the “fold reduction of castanospermine EC50 (isobologram)” value with BVDV [5] (at 10 IU/mL of interferon-α2b) is recorded as above 7 fold. In addition, the “fold decrease of castanospermine EC50” value with BVDV [5] (at 20 IU/mL interferon-α2b) is around 50 fold.
As for `CCCCN1C[C@H](O)[C@@H](O)[C@H](O)[C@H]1CO` [NB-DNJ, N-butyl-DNJ], the EC50 with BVDV [1] (MOI 0.05, individual drug) is above 500 µM.
As for `NC(=O)c1ncn([C@@H]2O[C@H](CO)[C@@H](O)[C@H]2O)n1` [Ribavirin, reference compound], the EC50 was found to be 4.4 ± 2 µM in the series on BVDV [2] (setting [7]); 9 ± 1 µM in the series with BVDV [2] (setting [8]); 2.4 ± 2.2 µM in the series on BVDV strain NADL; 9.1 ± 6.3 µM in the series on BVDV [3]; 4 ± 2 µM with BVDV [5] (setting [9]). Moreover, the CC50 in the series “in vitro” is 57 ± 34 µM; in series [4] (MDBK cells, Table 3, read-out: CC50), 250 µM. Further, the EC90 in the series with BVDV strain NADL stood at 4.9 ± 1.9 µM. Besides, the “fold reduction of ribavirin EC50 (isobologram)” value with BVDV [5] (at about 10 IU/mL interferon-α2b) is given as above 6 fold.
As for Interferon-α2b, the “Average Interferon-α2b EC50” value in the series on BVDV [5] (Castanospermine added 0 μM) is 16 IU/mL; with BVDV [5] (Castanospermine added 1.2 μM) it was 18 IU/mL; in the series on BVDV [5] (Castanospermine added 3.7 μM), 13 IU/mL; in the series on BVDV [5] (Castanospermine added 11 μM), 7 IU/mL; with BVDV [5] (Castanospermine added 33 μM), 1 IU/mL; in the series on BVDV [5] (Castanospermine added 100 μM), below 1 IU/mL. Besides, the “EC50 protection from BVDV-induced cytotoxicity, individual compound” value in the series with BVDV [5] (MOI 0.01, combination experiments, compound alone) is given as 19 ± 6 IU/mL. Moreover, the “fold decrease of interferon-α2b EC50” value in the series with BVDV [5] (at 11 μM of castanospermine) is around 2 fold.
